pKi: −log10 of the molar value.
Legend:
[1] = target: Trace amine-associated receptor 1 (Mus musculus, UniProt Q923Y8); assay: (§1) Radioligand Binding Assay: Membrane Preparation and Radioligand Binding. HEK-293 cells stably expressing mouse TAA 1 were maintained at 37 C and 5% C02 in DMEM high glucose medium, containing fetal calf serum (10%, heat inactivated for 30 min at 56 C), penicillin/streptomycin (1%), and 375 ug/ml geneticin (Gibco). Cells were released from culture flasks using trypsin/ EDTA, harvested, washed twice with ice-cold PBS (without Ca2+ and Mg2+), pelleted at 1,000 rpm for 5 min at 4 C, frozen and stored at -80 C. Frozen pellets were suspended in 20 ml HEPES-NaOH (20 mM, pH 7.4) containing 10 mM EDTA and homogenized with a Polytron (PT 6000, Kinematica) at 14,000 rpm for 20 s. The homogenate was centrifuged at 48,000 x g for 30 min at 4 C. Subsequently, the supernatant was removed and discarded, and the pellet resuspended in 20 ml HEPES-NaOH (20 mM, pH 7.4) containing 0.1 mM EDTA using the Polytron (20 s at 14,000 rpm).; assay type: cell membranes, HEK293
Sequence of Trace amine-associated receptor 1 (Mus musculus, UniProt Q923Y8) (Q923Y8 whole entry): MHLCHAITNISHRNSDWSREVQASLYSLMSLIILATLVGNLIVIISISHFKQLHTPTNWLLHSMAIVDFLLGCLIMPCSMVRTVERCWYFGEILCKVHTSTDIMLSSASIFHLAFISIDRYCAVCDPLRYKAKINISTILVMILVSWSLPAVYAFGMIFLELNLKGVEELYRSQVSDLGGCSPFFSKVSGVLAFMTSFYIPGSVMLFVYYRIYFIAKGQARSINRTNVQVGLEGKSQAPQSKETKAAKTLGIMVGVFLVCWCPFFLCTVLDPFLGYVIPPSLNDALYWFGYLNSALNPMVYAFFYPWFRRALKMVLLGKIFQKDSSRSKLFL

[2] = target: Trace amine-associated receptor 1 (Rattus norvegicus, UniProt Q923Y9); assay: as §1, with “Assay:” for “Assay: Membrane Preparation and Radioligand Binding.”, “rat TAAR1” for “mouse TAA 1”, “CO2” for “C02”, “rpm). This procedure was repeated and the final pellet resuspended in HEPES-NaOH containing 0.1 mM EDTA.” for “rpm).”; assay type: cell-based, HEK293
Sequence of Trace amine-associated receptor 1 (Rattus norvegicus, UniProt Q923Y9) (Q923Y9 whole entry): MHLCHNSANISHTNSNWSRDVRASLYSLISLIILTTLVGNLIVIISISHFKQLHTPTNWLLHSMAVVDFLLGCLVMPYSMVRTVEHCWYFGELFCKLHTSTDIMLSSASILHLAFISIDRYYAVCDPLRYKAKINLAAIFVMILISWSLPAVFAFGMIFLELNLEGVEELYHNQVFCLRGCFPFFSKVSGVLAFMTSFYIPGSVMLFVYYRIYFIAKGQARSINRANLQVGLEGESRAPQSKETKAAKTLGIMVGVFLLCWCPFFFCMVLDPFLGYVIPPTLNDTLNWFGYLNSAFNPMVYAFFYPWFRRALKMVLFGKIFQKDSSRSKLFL

SMILES | pKi [1] | pKi [2]
N#Cc1cccc(CNC(=O)Nc2ccc([C@H]3CNCCO3)cc2F)c1 | 8.51 | 7.17
COc1ccc(C#N)cc1NC(=O)Nc1ccc([C@@H]2CNCCO2)cc1F | 8.36 | 8.23
CCOc1ccc(C#N)cc1NC(=O)Nc1ccc([C@H]2CNCCO2)cc1F | 8.74 | 8.72
CCOc1ccc(C#N)cc1NC(=O)Nc1ccc([C@@H]2CNCCO2)cc1F | 8.51 | 8.41
N#Cc1ccnc(C(=O)Nc2ccc([C@@H]3CNCCO3)cc2F)c1 | 8.30 | 7.49
N#Cc1cccc(C(=O)Nc2ccc([C@H]3CNCCO3)cc2F)n1 | 8.01 | 6.02
O=C(Nc1ccc([C@H]2CNCCO2)c(F)c1)c1cnn(-c2ccc(OC(F)F)cc2)c1 | 9.22 | 9.15
N#Cc1cccc(C(=O)Nc2ccc([C@@H]3CNCCO3)cc2Cl)n1 | 7.08 | 6.74
N#Cc1cccc(C(=O)Nc2ccc([C@H]3CNCCO3)cc2Cl)n1 | 7.56 | 6.25
N#Cc1ccc(C(=O)Nc2ccc([C@H]3CNCCO3)cc2Cl)nc1 | 8.20 | 6.81
N#Cc1ccc(C(=O)Nc2ccc([C@@H]3CNCCO3)cc2Cl)nc1 | 7.92 | 7.69
N#Cc1ccc(C(=O)Nc2ccc([C@H]3CNCCO3)cc2Cl)cn1 | 7.77 | 6.28
N#Cc1ccc(C(=O)Nc2ccc([C@@H]3CNCCO3)cc2Cl)cn1 | 7.59 | 6.39
N#Cc1cc(Cl)cc(C(=O)Nc2ccc([C@H]3CNCCO3)cc2F)n1 | 8.20 | 7.03
O=C(Nc1ccc([C@H]2CNCCO2)c(F)c1)c1cnn(-c2ccnc(C(F)(F)F)n2)c1 | 8.10 | 8.44
O=C(Nc1ccc([C@H]2CNCCO2)c(F)c1)c1cnn(-c2cnc(C(F)(F)F)cn2)c1 | 8.32 | 8.40

Reference: ChEMBL document CHEMBL3638970, “Substituted benzamide derivatives” (2015)
